By GI50 is commonly meant the concentration giving 50% growth inhibition. Higher therefore signals lower sensitivity of the cells.

Experimental findings from ChEMBL document CHEMBL1130606, “Synthesis and cytotoxicity of acetyl-4H,9H-naphtho[2,3-b]thiophene-4,9-diones” (1998) are described below.

Structures are written as SMILES.

The subject of one assay is CCRF-CEM. Briefly: Compound was evaluated for cytotoxicity against CCRF-CEM leukemia cell line. Format: functional. The following applies: Homo sapiens.
The subject of another assay is IGROV-1. Briefly: Compound was evaluated for cytotoxicity against IGROV1 Ovarian cancer cell line. In kind it is functional. The following applies: Homo sapiens.
The subject of assay [1] is MCF7. The experiment in a line: Compound was evaluated for cytotoxicity against MCF-7 breast cancer cell lines. Format: functional. The following applies: Homo sapiens.
Another assay has as its system LOX IMVI. Briefly: Compound was evaluated for cytotoxicity against LOX IMVI melanoma cell line. The following applies: Homo sapiens. In kind it is functional.
The next assay has as its system MDA-N. Briefly: Compound was evaluated for cytotoxicity against MDA-N breast cancer cell line. In kind it is functional. As to conditions: Homo sapiens.
In the next assay the test system is MDA-MB-435. The experiment in a line: Compound was evaluated for cytotoxicity against MDA-MB-435 breast cancer cell line. As to conditions: Homo sapiens. Format: functional.
For assay [2], the system named is NCI-H460. The experiment in a line: Compound was evaluated for cytotoxicity against NCI-H460 non small cell lung cancer cell line. As to conditions: Homo sapiens. Format: functional.
The next assay has as its system OVCAR-3. Briefly: Compound was evaluated for cytotoxicity against OVCAR-3 Ovarian cancer cell line. The following applies: Homo sapiens. Format: functional.
Assay [3] has as its system NCI-H23. Briefly: Compound was evaluated for cytotoxicity against NCI-H23 non small cell lung cancer cell line. As to conditions: Homo sapiens. Format: functional.
A further assay relates to SK-MEL-5. Briefly: Compound was evaluated for cytotoxicity against SK-MEL-5 melanoma cell line. Format: functional. The following applies: Homo sapiens.
The next assay concerns MOLT-4. Briefly: Compound was evaluated for cytotoxicity against MOLT-4 leukemia cell line. Format: functional. As to conditions: Homo sapiens.
For assay [4], the system named is SF-539. Briefly: Compound was evaluated for cytotoxicity against SF-539 CNS cancer cell line. As to conditions: Homo sapiens.
Assay [5] has as its system SNB-19. The experiment in a line: Compound was evaluated for cytotoxicity against SNB-19 CNS cancer cell line. The following applies: Homo sapiens.
Assay [6] deals with HCT-15. Briefly: Compound was evaluated for cytotoxicity against HCT-15 colon cancer cell line. The following applies: Homo sapiens.
In assay [7] the test system is SW-620. The experiment in a line: Compound was evaluated for cytotoxicity against SW-620 colon cancer cell line. The following applies: Homo sapiens.
Another assay relates to NCI/ADR-RES. Briefly: Compound was evaluated for cytotoxicity against MCF 7/ADR-RES breast cancer cell line. The following applies: Homo sapiens.
Assay [8] relates to NCI-H522. The experiment in a line: Compound was evaluated for cytotoxicity against NCI-H522 non small cell lung cancer cell line. As to conditions: Homo sapiens.
The test system of the next assay is KB. Briefly: Effective cytotoxic dose against KB cells was evaluated. Format: functional. As to conditions: Homo sapiens, read-out: ED50 (the source's name).
The test system of assay [9] is HCT-15. The experiment in a line: Compound was evaluated for cytotoxicity against HCT-15 colon cancer cell line. Format: functional. The following applies: Homo sapiens.
Assay [10] deals with NCI-H522. The experiment in a line: Compound was evaluated for cytotoxicity against […] non small cell lung cancer cell line. Format: functional. The following applies: Homo sapiens.
Assay [11] relates to SNB-19. The experiment in a line: Compound was evaluated for cytotoxicity against SNB-19 CNS cancer cell line. Format: functional. The following applies: Homo sapiens.
Assay [12] concerns SW-620. Briefly: Compound was evaluated for cytotoxicity against SW-620 colon cancer cell line. In kind it is functional. As to conditions: Homo sapiens.
In assay [13] the test system is MCF7. The experiment in a line: Compound was evaluated for cytotoxicity against MCF-7 breast cancer cell line. Format: functional. As to conditions: Homo sapiens.
The test system of assay [14] is SF-539. Briefly: Compound was evaluated for cytotoxicity against SF-539 CNS cancer cell line. Format: functional. As to conditions: Homo sapiens.
Assay [15] deals with NCI-H460. The experiment in a line: Compound was evaluated for cytotoxicity against NCI-H460 non small cell kung cancer cell line. In kind it is functional. The following applies: Homo sapiens.
The test system of assay [16] is NCI-H23. The experiment in a line: Compound was evaluated for cytotoxicity against NCI-H23 non small cell kung cancer cell line. Format: functional. The following applies: Homo sapiens.
The next assay has as its system SR. Briefly: Compound was evaluated for cytotoxicity against SR leukemia cell line. In kind it is functional. The following applies: Homo sapiens.
Assay [17] has as its system NCI-H522. The experiment in a line: Compound was evaluated for cytotoxicity against […] non small cell kung cancer cell line. In kind it is functional. As to conditions: Homo sapiens.

Regarding `CC(=O)c1csc2c1C(=O)c1ccccc1C2=O`, the concentration for 50% growth inhibition (GI50) was 1550 nM with CCRF-CEM; 2450 nM in the assay on IGROV-1; 2090 nM in the assay with MCF7 [1]; 2340 nM with LOX IMVI; 933 nM in the assay with MDA-N; 324 nM in the assay on MDA-MB-435. Further, the concentration for 50% growth inhibition (GI50) in the assay with NCI-H460 [2] is 1320 nM; in the assay on OVCAR-3, 3550 nM; with NCI-H23 [3] it was 1050 nM; with SK-MEL-5, 170 nM; in the assay with MOLT-4, below 10 nM; with SF-539 [4] it was 2040 nM. The 50% growth inhibitory concentration (GI50) in the assay with SNB-19 [5] was 1780 nM; with HCT-15 [6], 17400 nM; in the assay on SW-620 [7] it was 2190 nM; in the assay on NCI/ADR-RES it was 2880 nM; in the assay on NCI-H522 [8], 1740 nM.

For the compound `CC(=O)c1ccc2c(c1)C(=O)c1scc(C(C)=O)c1C2=O`, the EC50 in the assay on KB came to 450 nM.

As for `CC(=O)c1cc2c(o1)C(=O)c1ccccc1C2=O` [NAPABUCASIN], the EC50 in the assay with KB is 4200 nM.

For the compound `CC(=O)c1cc2c(s1)C(=O)c1ccccc1C2=O`, the 50% growth inhibitory concentration (GI50) was 1000 nM in the assay with CCRF-CEM; 708 nM in the assay on HCT-15 [9]; 1780 nM with IGROV-1; 347 nM with LOX IMVI; 1200 nM in the assay with MDA-N; 339 nM in the assay on MDA-MB-435. In addition, the GI50 was 407 nM with NCI-H522 [10]; 457 nM in the assay with NCI-H460 [2]; 501 nM in the assay with OVCAR-3; 447 nM with NCI-H23 [3]; 501 nM with SNB-19 [11]; 347 nM in the assay on SK-MEL-5. Besides, the GI50 in the assay on SW-620 [12] was 457 nM; in the assay with MOLT-4, 2040 nM; in the assay with MCF7 [13] it was 1700 nM; in the assay with SF-539 [14], 759 nM; in the assay with NCI/ADR-RES, 1910 nM.

In the case of `CC(=O)c1ccc2c(c1)C(=O)c1sc(C(C)=O)cc1C2=O`, the GI50 in the assay with CCRF-CEM was 182 nM; in the assay on HCT-15 [9] it was 40.7 nM; with IGROV-1, 427 nM; in the assay on LOX IMVI, 219 nM; with MDA-N, 316 nM; in the assay with MDA-MB-435 it was 178 nM. Further, the GI50 with NCI-H460 [15] is 363 nM; in the assay on OVCAR-3 it was 331 nM; with NCI-H23 [16], 603 nM; with SNB-19 [11] it was 1350 nM; with SR, 24.6 nM; in the assay with SK-MEL-5, 174 nM. Further, the GI50 in the assay with SW-620 [12] was 204 nM; in the assay with MOLT-4 it was 66.1 nM; in the assay on MCF7 [13], 316 nM; with SF-539 [14] it was 355 nM; in the assay on NCI-H522 [17], 224 nM; with NCI/ADR-RES, 324 nM. Moreover, the EC50 in the assay with KB was around 1500 nM.
